For data set [1], the system named is MIA PaCa-2. In words: Induction of apoptosis in human MIAPaCa2 cells assessed as late apoptotic cells at 20 uM after 24 hrs by Annexin V-FITC/propidium iodide staining based flow cytometry (reference value: 7.4%). The class given is functional. For orientation: A flow cytometer gives signals particle by particle.
The subject of data set [2] is PANC-1. In words: Induction of apoptosis in human PANC1 cells assessed as accumulation at sub-G0/G1 phase at 20 uM after 48 hrs by propidium iodide staining based flow cytometry (reference value: 0.2 to 2.9%). The class given is functional.
The subject of another data set is Fibroblast. In words: Induction of apoptosis in human primary fibroblasts at 5 to 40 uM after 24 to 72 hrs by Annexin V/7-AAD staining based flow cytometry. In kind it is cell-based.
For data set [3], the system named is MIA PaCa-2. In words: Induction of apoptosis in human MIAPaCa2 cells assessed as increase in cleaved PARP protein expression at 20 uM after 24 to 48 hrs by Western blot analysis. The class given is functional, cell-based.
Data set [4] relates to PANC-1. Put plainly: Induction of apoptosis in human PANC1 cells assessed as accumulation at sub-G0/G1 phase at 20 uM after 72 hrs by propidium iodide staining based flow cytometry (reference value: 1.6 to 3.2%). In kind it is functional.
Data set [5] has as its system MIA PaCa-2. Put plainly: Induction of apoptosis in human MIAPaCa2 cells assessed as necrotic cells at 20 uM after 48 hrs by Annexin V-FITC/propidium iodide staining based flow cytometry (reference value: 0.63%). The class given is functional.
Data set [6] concerns PANC-1. Put plainly: Growth inhibition of human PANC1 cells after 72 hrs by XTT assay. In kind it is functional, cell-based. The conditions noted are these: PANC-1, 72 h.
Data set [7] relates to MIA PaCa-2. Put plainly: Induction of apoptosis in human MIAPaCa2 cells assessed as live cells at 20 uM after 48 hrs by Annexin V-FITC/propidium iodide staining based flow cytometry (reference value: 86.79%). The class given is functional.
The test system of data set [8] is PANC-1. Put plainly: Induction of apoptosis in human PANC1 cells assessed as accumulation at sub-G0/G1 phase at 20 uM after 24 hrs by propidium iodide staining based flow cytometry (reference value: 0.6 to 0.7%). In kind it is functional.
Data set [9] deals with BXPC-3. In words: Induction of apoptosis in human BxPC3 cells assessed as increase in cleaved PARP protein expression at 20 uM after 24 to 48 hrs by Western blot analysis. In kind it is functional, cell-based. In general terms: Immunoblotting shows a protein as a band on a membrane.
In data set [10] the test system is MIA PaCa-2. Put plainly: Induction of apoptosis in human MIAPaCa2 cells assessed as live cells at 20 uM after 24 hrs by Annexin V-FITC/propidium iodide staining based flow cytometry (reference value: 86.79%). In kind it is functional.
Data set [11] concerns PANC-1. In words: Induction of apoptosis in human PANC1 cells assessed as accumulation at sub-G0/G1 phase at 10 uM after 24 hrs by propidium iodide staining based flow cytometry (reference value: 0.6 to 0.7%). In kind it is functional.
The subject of data set [12] is MIA PaCa-2. In words: Induction of apoptosis in human MIAPaCa2 cells assessed as necrotic cells at 20 uM after 24 hrs by Annexin V-FITC/propidium iodide staining based flow cytometry (reference value: 0.63%). The class given is functional.
In data set [13] the test system is MIA PaCa-2. In words: Induction of apoptosis in human MIAPaCa2 cells assessed as early apoptotic cells at 20 uM after 48 hrs by Annexin V-FITC/propidium iodide staining based flow cytometry (reference value: 5.16%). The class given is functional.
Data set [14] deals with PANC-1. In words: Induction of apoptosis in human PANC1 cells assessed as accumulation at sub-G0/G1 phase at 10 uM after 48 hrs by propidium iodide staining based flow cytometry (reference value: 0.2 to 2.9%). In kind it is functional.
In data set [15] the test system is BXPC-3. Put plainly: Induction of autophagy in human BxPC3 cells assessed as increase in LC3-2 protein expression at 20 uM after 24 to 48 hrs by Western blot analysis. In kind it is functional, cell-based.
Data set [16] concerns BXPC-3. Put plainly: Growth inhibition of human BxPC3 cells after 72 hrs by XTT assay. In kind it is functional, cell-based. The conditions noted are these: BXPC-3, 72 h. Background: Formazan colour is commonly taken as a measure of viable cells.
Data set [17] deals with MIA PaCa-2. In words: Induction of autophagy in human MIAPaCa2 cells assessed as increase in LC3-2 protein expression at 20 uM after 24 to 48 hrs by Western blot analysis. The class given is functional, cell-based.
Data set [18] relates to PK9. In words: Induction of apoptosis in human PK9 cells at 5 to 40 uM after 24 to 72 hrs by Annexin V/7-AAD staining based flow cytometry. In kind it is functional, cell-based.
A short description of data set [19]: Induction of apoptosis in HPNE cells at 5 to 40 uM after 24 to 72 hrs by Annexin V/7-AAD staining based flow cytometry. In kind it is cell-based. The conditions noted are these: human.
Data set [20] relates to PANC-1. In words: Induction of apoptosis in human PANC1 cells assessed as accumulation at sub-G0/G1 phase at 10 uM after 72 hrs by propidium iodide staining based flow cytometry (reference value: 1.6 to 3.2%). The class given is functional.
Data set [21] has as its system MIA PaCa-2. Put plainly: Induction of apoptosis in human MIAPaCa2 cells assessed as late apoptotic cells at 20 uM after 48 hrs by Annexin V-FITC/propidium iodide staining based flow cytometry (reference value: 7.4%). The class given is functional.
Data set [22] concerns MIA PaCa-2. Put plainly: Induction of apoptosis in human MIAPaCa2 cells assessed as early apoptotic cells at 20 uM after 24 hrs by Annexin V-FITC/propidium iodide staining based flow cytometry (reference value: 5.16%). The class given is functional.
Data set [23] concerns MIA PaCa-2. Put plainly: Antiproliferative activity against human MIAPaCa2 cells. In kind it is functional, cell-based.
The test system of data set [24] is PK9. Put plainly: Antiproliferative activity against human PK9 cells. The class given is functional, cell-based.
In the next data set the test system is Jurkat. Put plainly: Growth inhibition of human Jurkat cells after 72 hrs. The class given is functional, cell-based.
In the next data set the test system is ACHN. Put plainly: Growth inhibition of human ACHN cells after 72 hrs. In kind it is functional, cell-based.
The next data set deals with NCI-H460. In words: Growth inhibition of human NCI-H460 cells after 72 hrs. In kind it is functional, cell-based. The note with it: NCI-H460, 72 h.
Another data set concerns HeLa. In words: Growth inhibition of human HeLa cells after 72 hrs. In kind it is functional, cell-based.

SMILES strings stand for the structures. Active and inactive are the calls of the source. The rule behind the calls is not given here.

Regarding `CCCCCCCC/C=C\CCCCCCCCOC[C@@H]1CCCN1C(=O)[C@@H]1CCCN1.Cl`, the Activity is listed as 8.64% in the data set on MIA PaCa-2 [1]; 21.3% in the data set on PANC-1 [2]; “Toxic” with Fibroblast; 74.9% in the data set with PANC-1 [4]; 0.16% in the data set with MIA PaCa-2 [5]; 81.02% with MIA PaCa-2 [7]. The Activity with PANC-1 [8] is 4.4%; with MIA PaCa-2 [10], 83.47%; in the data set on PANC-1 [11], 2.6%; in the data set with MIA PaCa-2 [12], 1.1%; in the data set with MIA PaCa-2 [13], 10.86%; with PANC-1 [14], 12.3%. Moreover, the Activity entry in data set [19] was “Toxic”; in the data set on PANC-1 [20], 56.3%; in the data set with MIA PaCa-2 [21], 7.94%; with MIA PaCa-2 [22], 6.78%. Moreover, the result with MIA PaCa-2 [3], with BXPC-3 [9], in the data set on BXPC-3 [15] and in the data set with MIA PaCa-2 [17] was inactive. Moreover, the IC50 (as a rule, the concentration needed to halve the response being measured) is 5 µM in the data set with PANC-1 [6] and 4.3 µM in the data set with BXPC-3 [16]. Further, the result in the data set with PK9 [18] was Active.
`CCCCCCCCCCCCc1cn(CC[C@H]2NC[C@@H](O)[C@H]2O)nn1`: the IC50 in the data set with MIA PaCa-2 [23] and in the data set on PK9 [24] was 14 to 45 µM in each case.
Regarding `CCCCCCCC/C=C\CCCCCCCCOC[C@H]1NC[C@H](O)[C@@H]1O`, the IC50 in the data set with Jurkat is 7 µM; with ACHN, 3 µM; in the data set with NCI-H460 it was 9 µM; with HeLa, 8 µM.
`CCCCCCCCCCCCc1cn(C[C@@H]2N[C@@H](C)[C@@H](O)[C@H]2O)nn1`: the IC50 in the data set with MIA PaCa-2 [23] and with PK9 [24] was 14 to 45 µM each time.
On to `CCCCCCCCCCCCc1cn(C[C@H]2NC[C@H](O)[C@@H]2O)nn1`, for which the IC50 in the data set on MIA PaCa-2 [23] and with PK9 [24] was 14 to 45 µM in each case.
Turning to `CCCCCCCC/C=C\CCCCCCCCOC[C@@H]1CCCN1C(=O)CN.Cl`, the Activity in the data set with PANC-1 [2] is given as 7.9%; in the data set on Fibroblast, “Toxic”; with PANC-1 [4], 50.3%; with PANC-1 [8] it was 2.2%; with PANC-1 [11], 2.4%; in the data set on PANC-1 [14], 13.7%. Also, the Activity entry in [19] is “Toxic”; in the data set with PANC-1 [20], 52.9%. The IC50 is 7.7 µM with PANC-1 [6] and 5.3 µM in the data set with BXPC-3 [16]. The outcome with PK9 [18] was Active.

Values taken from ChEMBL document CHEMBL4196088, “Induction of cell killing and autophagy by amphiphilic pyrrolidine derivatives on human pancreatic cancer cells” (Eur J Med Chem, 2018).
